The values below come from patent US11572590B2, “Methods for evaluating tumor cell spheroids using 3D microfluidic cell culture device” (Dana-Farber Cancer Institute, Inc., priority 2017, dated 2023).

Where two headings read alike, the source gives them in different places.

Holding throughout (experiment): SelectScreen Kinase Profiling, single point inhibition and IC50 for off-target kinases
Holding throughout (assay type): biochemical

For assay [1], the target named is off-target kinases (Homo sapiens, UniProt Q16620). The settings on record: NTRK2 (TRKB), ZLYTE, ATP Km app.
In assay [2] the target is off-target kinases (Homo sapiens, UniProt P50613). The settings on record: CDK7/cyclin H/MNAT1, Adapta, ATP Km app.
The target in assay [3] is off-target kinases (Homo sapiens, UniProt Q9Y243). The following applies: AKT3 (PKB gamma), ZLYTE, ATP Km app.
Assay [4] addresses T1, off-target kinases (Homo sapiens, UniProt Q32MK0).
T1 sequence (Q32MK0 1-819): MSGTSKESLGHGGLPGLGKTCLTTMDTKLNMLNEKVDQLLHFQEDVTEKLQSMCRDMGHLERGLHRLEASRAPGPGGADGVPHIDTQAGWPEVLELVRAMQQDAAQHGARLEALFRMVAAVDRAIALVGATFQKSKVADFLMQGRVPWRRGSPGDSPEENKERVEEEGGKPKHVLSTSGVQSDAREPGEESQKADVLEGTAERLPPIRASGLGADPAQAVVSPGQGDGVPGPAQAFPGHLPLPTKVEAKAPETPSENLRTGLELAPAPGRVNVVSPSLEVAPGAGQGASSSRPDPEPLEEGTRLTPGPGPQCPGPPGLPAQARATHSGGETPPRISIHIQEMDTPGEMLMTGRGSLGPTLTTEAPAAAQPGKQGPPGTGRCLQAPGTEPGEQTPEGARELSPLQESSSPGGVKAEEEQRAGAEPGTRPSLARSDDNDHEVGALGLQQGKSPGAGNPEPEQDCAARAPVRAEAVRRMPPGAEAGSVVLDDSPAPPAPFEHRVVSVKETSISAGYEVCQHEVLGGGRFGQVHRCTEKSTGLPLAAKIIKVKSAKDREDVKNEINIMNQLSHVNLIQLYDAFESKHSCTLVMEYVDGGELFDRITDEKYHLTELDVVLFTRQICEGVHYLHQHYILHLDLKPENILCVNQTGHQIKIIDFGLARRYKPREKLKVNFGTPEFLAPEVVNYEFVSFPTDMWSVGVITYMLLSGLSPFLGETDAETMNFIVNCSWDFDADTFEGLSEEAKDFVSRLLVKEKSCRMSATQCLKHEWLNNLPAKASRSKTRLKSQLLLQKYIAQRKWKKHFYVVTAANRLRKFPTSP
The settings on record: MLCK (MLCK2), LanthaScreen Binding.

For assay [5], the target named is off-target kinases (Homo sapiens, UniProt P49841). The settings on record: GSK3B (GSK3 beta), ZLYTE, ATP Km app.
The target of assay [6] is off-target kinases (Homo sapiens, UniProt P00533, L861Q). The following applies: EGFR (ErbB1) L861Q (mutant), ZLYTE, ATP Km app.
Chain of off-target kinases (Homo sapiens, UniProt P00533, L861Q) (P00533 25-1210 L861Q): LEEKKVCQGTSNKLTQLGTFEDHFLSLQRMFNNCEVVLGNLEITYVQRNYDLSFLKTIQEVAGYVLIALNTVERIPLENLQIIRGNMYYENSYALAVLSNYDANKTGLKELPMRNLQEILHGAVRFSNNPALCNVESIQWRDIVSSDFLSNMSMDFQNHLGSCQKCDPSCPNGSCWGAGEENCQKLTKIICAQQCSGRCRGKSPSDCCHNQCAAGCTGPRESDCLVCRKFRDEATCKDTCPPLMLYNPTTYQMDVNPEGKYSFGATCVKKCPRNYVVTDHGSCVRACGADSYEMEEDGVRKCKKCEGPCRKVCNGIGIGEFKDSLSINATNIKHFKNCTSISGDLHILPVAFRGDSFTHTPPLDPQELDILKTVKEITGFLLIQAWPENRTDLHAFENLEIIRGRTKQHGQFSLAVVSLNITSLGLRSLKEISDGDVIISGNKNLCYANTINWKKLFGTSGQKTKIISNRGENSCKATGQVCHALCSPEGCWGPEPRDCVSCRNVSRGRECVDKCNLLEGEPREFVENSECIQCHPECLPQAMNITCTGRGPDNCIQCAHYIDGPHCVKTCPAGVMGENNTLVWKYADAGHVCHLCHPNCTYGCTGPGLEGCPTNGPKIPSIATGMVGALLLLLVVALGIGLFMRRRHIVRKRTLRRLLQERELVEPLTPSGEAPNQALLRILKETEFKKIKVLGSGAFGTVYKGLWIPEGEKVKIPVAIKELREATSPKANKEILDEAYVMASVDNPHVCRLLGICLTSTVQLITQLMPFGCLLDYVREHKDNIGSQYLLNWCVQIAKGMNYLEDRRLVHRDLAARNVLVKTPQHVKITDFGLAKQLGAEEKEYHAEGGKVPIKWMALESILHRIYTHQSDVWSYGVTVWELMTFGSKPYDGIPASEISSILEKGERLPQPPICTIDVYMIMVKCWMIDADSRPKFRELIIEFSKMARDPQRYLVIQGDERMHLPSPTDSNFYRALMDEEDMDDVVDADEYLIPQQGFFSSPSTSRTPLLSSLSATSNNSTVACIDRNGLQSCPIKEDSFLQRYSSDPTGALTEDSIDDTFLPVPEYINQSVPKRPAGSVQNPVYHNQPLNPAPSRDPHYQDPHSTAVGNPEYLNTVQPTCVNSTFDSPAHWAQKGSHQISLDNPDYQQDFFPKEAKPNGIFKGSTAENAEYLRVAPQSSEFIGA

Chain of off-target kinases (Homo sapiens, UniProt P49841) (P49841 whole entry): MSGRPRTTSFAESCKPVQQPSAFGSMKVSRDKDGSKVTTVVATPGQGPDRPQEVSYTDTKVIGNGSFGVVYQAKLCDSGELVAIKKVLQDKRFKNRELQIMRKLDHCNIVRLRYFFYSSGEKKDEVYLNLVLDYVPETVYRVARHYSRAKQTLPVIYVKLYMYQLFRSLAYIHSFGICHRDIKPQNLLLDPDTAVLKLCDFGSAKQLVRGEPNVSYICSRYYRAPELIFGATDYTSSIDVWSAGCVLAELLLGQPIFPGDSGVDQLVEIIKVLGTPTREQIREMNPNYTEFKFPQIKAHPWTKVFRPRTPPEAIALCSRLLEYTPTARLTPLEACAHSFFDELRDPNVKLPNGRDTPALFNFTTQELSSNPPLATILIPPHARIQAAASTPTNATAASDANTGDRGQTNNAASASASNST
Chain of off-target kinases (Homo sapiens, UniProt Q9Y243) (Q9Y243 whole entry): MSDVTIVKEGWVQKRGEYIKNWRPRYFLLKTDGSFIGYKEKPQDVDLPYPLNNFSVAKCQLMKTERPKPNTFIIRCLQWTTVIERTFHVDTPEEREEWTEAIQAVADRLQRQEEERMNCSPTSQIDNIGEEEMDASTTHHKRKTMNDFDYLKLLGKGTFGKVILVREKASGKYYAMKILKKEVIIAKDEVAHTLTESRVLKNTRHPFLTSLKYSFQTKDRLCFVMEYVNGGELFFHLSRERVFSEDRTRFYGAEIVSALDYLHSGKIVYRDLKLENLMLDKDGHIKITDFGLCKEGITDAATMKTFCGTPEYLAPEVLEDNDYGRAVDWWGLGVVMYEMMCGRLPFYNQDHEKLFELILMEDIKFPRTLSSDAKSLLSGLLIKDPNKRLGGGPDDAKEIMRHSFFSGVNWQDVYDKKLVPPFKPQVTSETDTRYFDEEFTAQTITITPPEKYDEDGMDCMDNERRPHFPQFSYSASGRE
Chain of off-target kinases (Homo sapiens, UniProt Q16620) (Q16620 32-822): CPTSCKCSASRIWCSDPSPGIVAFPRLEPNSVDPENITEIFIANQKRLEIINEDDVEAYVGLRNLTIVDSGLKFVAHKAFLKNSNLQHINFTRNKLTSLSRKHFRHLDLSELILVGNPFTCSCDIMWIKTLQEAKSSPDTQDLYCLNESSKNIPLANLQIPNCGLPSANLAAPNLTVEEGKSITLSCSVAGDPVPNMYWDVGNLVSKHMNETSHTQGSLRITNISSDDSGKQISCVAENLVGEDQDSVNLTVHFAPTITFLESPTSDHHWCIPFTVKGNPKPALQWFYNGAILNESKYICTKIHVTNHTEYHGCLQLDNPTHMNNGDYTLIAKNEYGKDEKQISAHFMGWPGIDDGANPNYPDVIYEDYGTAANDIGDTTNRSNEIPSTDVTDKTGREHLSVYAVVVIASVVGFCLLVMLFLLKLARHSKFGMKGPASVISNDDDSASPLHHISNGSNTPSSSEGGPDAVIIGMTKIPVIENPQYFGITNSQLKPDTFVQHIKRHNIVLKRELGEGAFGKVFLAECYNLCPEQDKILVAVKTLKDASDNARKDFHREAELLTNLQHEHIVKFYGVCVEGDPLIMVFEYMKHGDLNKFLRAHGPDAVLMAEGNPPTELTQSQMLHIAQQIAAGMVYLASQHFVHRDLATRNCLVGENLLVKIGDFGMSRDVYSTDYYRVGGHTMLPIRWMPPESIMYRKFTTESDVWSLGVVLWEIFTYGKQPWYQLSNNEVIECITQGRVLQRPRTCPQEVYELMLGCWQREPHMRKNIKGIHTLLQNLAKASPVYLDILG
Chain of off-target kinases (Homo sapiens, UniProt P50613) (P50613 whole entry): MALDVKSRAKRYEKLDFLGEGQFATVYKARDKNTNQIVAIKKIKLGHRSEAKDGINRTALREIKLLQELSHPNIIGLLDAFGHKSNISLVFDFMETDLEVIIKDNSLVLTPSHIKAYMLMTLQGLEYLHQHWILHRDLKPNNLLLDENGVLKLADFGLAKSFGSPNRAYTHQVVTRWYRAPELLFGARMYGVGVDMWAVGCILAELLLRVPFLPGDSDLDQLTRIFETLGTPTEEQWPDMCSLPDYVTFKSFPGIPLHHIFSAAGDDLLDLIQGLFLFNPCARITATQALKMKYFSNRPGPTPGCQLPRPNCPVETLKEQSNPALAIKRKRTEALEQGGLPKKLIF

As to `N#Cc1cc(-c2ncnc(Nc3ccc(N4CCN(C5COC5)CC4)cc3)n2)ccc1OC1CCOCC1` [Compound 1, 5-(4-((4-(4-(oxetan-3-yl)piperazin-1-yl)phenyl)amino)-1,3,5-triazin-2-yl)-2-((tetrahydro-2H-pyran-4-yl)oxy)benzonitrile], the inhibition on off-target kinases [1] (read-out: % Inhibition 1) turned out to be 5%; on off-target kinases [1] (read-out: % Inhibition 2) it was 7%; at off-target kinases [1] (read-out: % Inhibition Avg), 6%; on off-target kinases [2] (read-out: % Inhibition 1), 17%; on off-target kinases [2] (read-out: % Inhibition 2), 14%; on off-target kinases [2] (read-out: % Inhibition Avg), 15%. Besides, the inhibition at off-target kinases [3] (read-out: % Inhibition 1) is 3%; on off-target kinases [3] (read-out: % Inhibition 2) it was 1%; on off-target kinases [3] (read-out: % Inhibition Avg), 2%; at off-target kinases [4] (read-out: % Inhibition 1), 92%; on off-target kinases [4] (read-out: % Inhibition 2), 93%; at off-target kinases [4] (read-out: % Inhibition Avg), 93%. The inhibition was determined as 21% at off-target kinases [5] (read-out: % Inhibition 1); 21% on off-target kinases [5] (read-out: % Inhibition 2); 21% on off-target kinases [5] (read-out: % Inhibition Avg); 6% on off-target kinases [6] (read-out: % Inhibition 1); 5% at off-target kinases [6] (read-out: % Inhibition 2); 5% at off-target kinases [6] (read-out: % Inhibition Avg).
